Patent US9777005B2 (Takeda Pharmaceutical Company Limited, priority 2012, dated 2017)

Target: T1, human M1 receptor (hCHRM1) (Homo sapiens, UniProt P11229)
T1 construct: expressed in transfected cells; host or cells: CHO-K1
T1 sequence (P11229 1-460): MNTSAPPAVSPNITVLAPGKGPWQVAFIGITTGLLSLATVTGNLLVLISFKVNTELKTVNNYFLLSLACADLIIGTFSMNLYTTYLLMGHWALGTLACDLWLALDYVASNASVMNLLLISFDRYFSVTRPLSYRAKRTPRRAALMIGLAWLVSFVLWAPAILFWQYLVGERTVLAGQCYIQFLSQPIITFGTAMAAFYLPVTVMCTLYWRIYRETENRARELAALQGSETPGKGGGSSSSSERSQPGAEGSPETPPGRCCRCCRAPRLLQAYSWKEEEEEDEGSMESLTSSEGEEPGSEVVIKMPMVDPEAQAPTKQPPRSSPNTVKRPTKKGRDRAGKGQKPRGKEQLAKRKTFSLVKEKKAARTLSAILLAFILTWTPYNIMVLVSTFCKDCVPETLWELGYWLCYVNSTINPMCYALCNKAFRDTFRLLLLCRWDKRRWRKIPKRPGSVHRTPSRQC
Assay: Measurement of M1 receptor positive allosteric modulator (M1PAM) activity, calcium fluorescence (FLIPRtetra) in CHO-K1 cells in the presence of acetylcholine at EC20
Format: cell-based
Details: in the presence of acetylcholine at EC20 (final 0.6 nM), CHO-K1 cells expressing hCHRM1; for EC50: inflection point of M1PAM activity, read-out: IP value; for activity (%) at 10 μM: test compound 10 μM
In short: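 CHO-K1 cells expressing human M1 were loaded with Fluo-4 AM, and compound was added with acetylcholine at EC20 (final 0.6 nM). Calcium fluorescence was read on FLIPRtetra for 1 min. Activity was normalized to 1 μM acetylcholine (100%) and DMSO (0%), and the curve inflection point was reported as IP.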

Row | Structure (SMILES) | EC50 [nM] | activity (%) at 10 μM [%]
1 | Cc1nn(C)cc1-c1ccc(CN2Cc3ccnc(O[C@H]4CCC[C@@H]4O)c3C2=O)cc1 (relative stereo) [Example 227, 2-(4-(1,3-dimethyl-1H-pyrazol-4-yl)benzyl)-4-((trans-2-hydroxycyclopentyl)oxy)-1,2-dihydro-3H-pyrrolo[3,4-c]pyridin-3-one] | 10 | 99
2 | Cc1nn(C)cc1-c1ccc(CN2Cc3ncnc(Oc4c(F)cccc4F)c3C2=O)c(F)c1 [Example 372, 4-(2,6-difluorophenoxy)-6-(4-(1,3-dimethyl-1H-pyrazol-4-yl)-2-fluorobenzyl)-6,7-dihydro-5H-pyrrolo[3,4-d]pyrimidin-5-one] | 46 | 109
3 | O=C1c2c(cc(F)cc2O[C@H]2CCCC[C@@H]2O)CN1Cc1ccc(-n2cccn2)cc1 (relative stereo) [Example 244, 5-fluoro-7-((trans-2-hydroxycyclohexyl)oxy)-2-(4-(1H-pyrazol-1-yl)benzyl)isoindolin-1-one] | 16 | 104
4 | O=C1c2c(ccnc2OCC2CCCO2)CN1Cc1ccc(-c2cnn3c2CCCC3)cc1 (stereo not shown) [Example 296, 4-((tetrahydrofuran-2-yl)methoxy)-2-(4-(4,5,6,7-tetrahydropyrazolo[1,5-a]pyridin-3-yl)benzyl)-1,2-dihydro-3H-pyrrolo[3,4-c]pyridin-3-one] | 12 | 92
5 | Cn1ccc(-c2ccc(CN3Cc4ncnc(Oc5c(F)cc(F)cc5F)c4C3=O)cc2)n1 [Example 366, 6-(4-(1-methyl-1H-pyrazol-3-yl)benzyl)-4-(2,4,6-trifluorophenoxy)-6,7-dihydro-5H-pyrrolo[3,4-d]pyrimidin-5-one] | 42 | 104
6 | NC(=O)c1ccc(CN2Cc3cccc(Oc4ccc(C(F)(F)F)cc4F)c3C2=O)cc1F [Example 461, 2-fluoro-4-((7-(2-fluoro-4-(trifluoromethyl)phenoxy)-1-oxo-1,3-dihydro-2H-isoindol-2-yl)methyl)benzamide] | 50 | 95
7 | Cn1cc(-c2ccc(CN3Cc4ncnc(OCc5ccc(F)cc5F)c4C3=O)cc2)nn1 [Example 340, 4-((2,4-difluorobenzyl)oxy)-6-(4-(1-methyl-1H-1,2,3-triazol-4-yl)benzyl)-6,7-dihydro-5H-pyrrolo[3,4-d]pyrimidin-5-one] | 3.8 | 106
8 | CNC(=O)c1ccc(CN2Cc3ccnc(Oc4ccc(C(F)(F)F)cc4F)c3C2=O)cc1F [Example 435, 2-fluoro-4-((4-(2-fluoro-4-(trifluoromethyl)phenoxy)-3-oxo-1,3-dihydro-2H-pyrrolo[3,4-c]pyridin-2-yl)methyl)-N-methylbenzamide] | 30 | 102
9 | Cn1cc(-c2ccc(CN3Cc4cccc(OCCN5CCC(F)(F)CC5)c4C3=O)cc2)cn1 [Example 18, 7-(2-(4,4-difluoropiperidin-1-yl)ethoxy)-2-(4-(1-methyl-1H-pyrazol-4-yl)benzyl)isoindolin-1-one] | 60 | 107
10 | Cn1cc(-c2ccc(CN3Cc4cccc(Oc5ccc(C(O)C(F)(F)F)cc5F)c4C3=O)cn2)cn1 (stereo not shown) [Example 390, 7-(2-fluoro-4-(2,2,2-trifluoro-1-hydroxyethyl)phenoxy)-2-((6-(1-methyl-1H-pyrazol-4-yl)pyridin-3-yl)methyl)isoindolin-1-one] | 71 | 90
11 | Cn1cc(-c2ccc(CN3Cc4ccnc(OCCC5CC5)c4C3=O)cc2)nn1 [Example 254, 4-(2-cyclopropylethoxy)-2-(4-(1-methyl-1H-1,2,3-triazol-4-yl)benzyl)-1,2-dihydro-3H-pyrrolo[3,4-c]pyridin-3-one] | 67 | 110
12 | Cn1cc(-c2ccc(CN3Cc4ccnc(OCCC5CC5)c4C3=O)c(F)c2)nn1 [Example 260, 4-(2-cyclopropylethoxy)-2-(2-fluoro-4-(1-methyl-1H-1,2,3-triazol-4-yl)benzyl)-1,2-dihydro-3H-pyrrolo[3,4-c]pyridin-3-one] | 45 | 109
13 | Cc1nn(C)cc1-c1ccc(CN2Cc3ccnc(Oc4c(F)cc(C#N)cc4F)c3C2=O)cc1 [Example 385, 4-((2-(4-(1,3-dimethyl-1H-pyrazol-4-yl)benzyl)-3-oxo-2,3-dihydro-1H-pyrrolo[3,4-c]pyridin-4-yl)oxy)-3,5-difluorobenzonitrile] | 2.6 | 85
14 | Cn1cc(-c2ccc(CN3Cc4cccc(OCCN5CCCCC5)c4C3=O)cc2)cn1 [Example 21, 2-(4-(1-methyl-1H-pyrazol-4-yl)benzyl)-7-(2-(piperidin-1-yl)ethoxy)isoindolin-1-one] | 96 | 105
